Measured values taken from article PMC5945515, “Measuring glucocorticoid receptor expression in vivo with PET” (Oncotarget, 2018).

Experiments:
huMR = molecular target: T1, huMR (Homo sapiens, UniProt P08235); test: Competition binding assay on cells, human MR; details: displacing 3H-aldosterone on cells
T1 sequence (P08235 1-984): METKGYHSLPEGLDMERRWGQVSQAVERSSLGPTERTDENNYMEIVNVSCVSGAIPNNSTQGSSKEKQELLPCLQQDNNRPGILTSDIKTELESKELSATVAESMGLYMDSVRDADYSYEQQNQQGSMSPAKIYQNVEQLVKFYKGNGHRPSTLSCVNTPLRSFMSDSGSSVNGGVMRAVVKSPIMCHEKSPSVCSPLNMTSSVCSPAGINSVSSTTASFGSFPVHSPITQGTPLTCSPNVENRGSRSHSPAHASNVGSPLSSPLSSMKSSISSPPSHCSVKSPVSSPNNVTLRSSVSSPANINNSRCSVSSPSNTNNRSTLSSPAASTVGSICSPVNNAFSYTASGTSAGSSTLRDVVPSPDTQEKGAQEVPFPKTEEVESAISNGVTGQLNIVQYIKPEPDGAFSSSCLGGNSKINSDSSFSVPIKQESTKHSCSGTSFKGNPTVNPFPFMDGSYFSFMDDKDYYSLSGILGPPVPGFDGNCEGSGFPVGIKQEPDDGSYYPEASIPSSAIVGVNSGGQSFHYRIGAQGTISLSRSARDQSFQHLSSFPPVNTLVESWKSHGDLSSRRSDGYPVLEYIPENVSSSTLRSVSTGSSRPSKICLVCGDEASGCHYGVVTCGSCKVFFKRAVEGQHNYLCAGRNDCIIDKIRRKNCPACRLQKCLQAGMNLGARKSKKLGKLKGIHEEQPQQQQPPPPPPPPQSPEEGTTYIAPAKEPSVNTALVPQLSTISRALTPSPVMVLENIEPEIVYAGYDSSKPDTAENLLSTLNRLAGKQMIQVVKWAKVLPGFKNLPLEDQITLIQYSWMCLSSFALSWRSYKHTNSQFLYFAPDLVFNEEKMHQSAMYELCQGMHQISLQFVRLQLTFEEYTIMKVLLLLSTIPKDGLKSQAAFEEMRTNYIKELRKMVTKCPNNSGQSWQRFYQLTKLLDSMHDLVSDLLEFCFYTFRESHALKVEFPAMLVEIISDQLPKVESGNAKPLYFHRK
Experimental: (§1) The KD for subfamily 3 group C nuclear hormone receptors was determined on cells by displacing ^3H-steroidal agonists for the respective receptor.
(§2) The cold ligands and ^3H-steroids were co-incubated on cells in PBS at room temperature for one hour. Following incubation, the cells were washed twice with ice cold PBS and the unbound activity was retained for analysis. The cells were lysed with 1 mL of 1 M NaOH and collected. Bound and unbound fractions were counted in a liquid scintillation counter and expressed as a percentage of the total activity added per equal relative number of cells. […] The specific binding component was plotted against the log of the competing ligand and curve fit using a non-linear regression algorithm with PRISM software.

huPR = molecular target: T2, huPR (Homo sapiens, UniProt P06401); test: Competition binding assay on cells, human PR; details: MCF7 cells, displacing 3H-progesterone
T2 construct: DU145 (GR), LNCaP-AR (AR), MCF7 (PR, ER), GL261 (mouse GR), and 9L (rat GR); endogenous in cells; host or cells: MCF7
T2 sequence (P06401 1-933): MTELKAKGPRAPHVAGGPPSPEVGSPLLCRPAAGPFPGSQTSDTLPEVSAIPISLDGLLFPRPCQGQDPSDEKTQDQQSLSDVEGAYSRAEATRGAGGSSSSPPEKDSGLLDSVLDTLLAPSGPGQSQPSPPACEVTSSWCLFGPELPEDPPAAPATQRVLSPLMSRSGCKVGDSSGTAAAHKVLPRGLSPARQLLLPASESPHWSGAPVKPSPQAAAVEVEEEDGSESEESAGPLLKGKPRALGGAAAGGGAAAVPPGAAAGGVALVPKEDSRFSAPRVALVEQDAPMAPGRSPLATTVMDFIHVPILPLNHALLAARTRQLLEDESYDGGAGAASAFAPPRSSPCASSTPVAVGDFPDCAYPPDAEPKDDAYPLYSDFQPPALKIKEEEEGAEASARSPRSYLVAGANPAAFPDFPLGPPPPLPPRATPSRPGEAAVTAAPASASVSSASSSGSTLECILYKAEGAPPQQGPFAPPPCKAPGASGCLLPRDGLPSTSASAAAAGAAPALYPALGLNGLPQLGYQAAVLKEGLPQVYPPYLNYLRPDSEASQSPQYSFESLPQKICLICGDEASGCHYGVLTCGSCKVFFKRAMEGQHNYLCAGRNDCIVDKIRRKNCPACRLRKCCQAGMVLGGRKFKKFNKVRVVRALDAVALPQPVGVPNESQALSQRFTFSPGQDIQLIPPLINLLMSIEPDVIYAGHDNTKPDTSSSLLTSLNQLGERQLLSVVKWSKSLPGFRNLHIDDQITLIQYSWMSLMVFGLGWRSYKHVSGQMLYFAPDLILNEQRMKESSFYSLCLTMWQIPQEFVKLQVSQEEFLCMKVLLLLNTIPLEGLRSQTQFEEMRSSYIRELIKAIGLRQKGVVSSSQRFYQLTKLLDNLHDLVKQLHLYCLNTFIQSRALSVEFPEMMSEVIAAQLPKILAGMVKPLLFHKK
Experimental: as §1, §2

C[C@]12C=CC(=O)C=C1CCC1C2[C@@H](O)C[C@@]2(C)C1CC[C@]2(O)C(=O)COCCCF (stereo partly shown) [GR01]
Kd (huMR): 212 nM
Kd (huPR): 1060 nM

C[C@]12C=CC(=O)C=C1CCC1C2[C@@H](O)C[C@@]2(C)C1CC[C@]2(O)C(=O)CNC(=O)c1ccc(F)cc1 (stereo partly shown) [GR02]
Kd (huMR): 4030 nM
Kd (huPR): 242 nM
